Test results: PMC9032934 (Pharmaceutics, 2022)
Non-standard residues stand in square brackets, D forms with d. Residues, ends and D or L forms follow the SMILES beside them.

What was measured:
Caco-2 cells [1] = test: Cell viability by DAPI labeling in flow cytometry, Caco-2; details: CPZ 20 μM, NYS 50 μM, MBCD 5 mM, compared to non-treated cells (80 ± 10%)
Description: At the end of each incubation, cells were rinsed twice with D-PBS. […] After the addition of 400 μL of D-PBS supplemented with 5% (v/v) FBS, cells were transferred to 1.5 mL tubes and centrifuged (10 min, 4 °C, 1500 rpm). Cell pellets were resumed in 500 μL of D-PBS supplemented with 0.5% (v/v) FBS and 0.1% (v/v) 4′,6-diamidino-2-phenylindole (DAPI solution, Sigma-Aldrich, (Saint-Quentin-Fallavier, France), transferred to round-bottom polystyrene Falcon tubes (Thermo Fisher Scientific Inc., Rockford, IL, USA) and analyzed with a Fortessa LSR cytometer (Becton Dickinson, Pont-de-Claix, France; DAPI: λex = 405 nm/λem = 425–475 nm; TAMRA: λex = 561 nm/λem = 605–625 nm). Damaged cells were excluded with the DAPI labeling. For each condition, 10,000 events were recorded.

Caco-2 cells [2] = test: Cellular uptake of Tamra-labelled peptides by flow cytometry, Caco-2; format: cell-based, human; details: for decrease in transfection efficiency with 10% serum / decrease in transfection efficiency with 20% serum: Tamra-peptides 5 µM, 3 h; for decrease in transfection efficiency with 10% serum: OptiMEM + 10% (v/v) FBS vs 0%; for decrease in transfection efficiency with 20% serum: OptiMEM + 20% (v/v) FBS vs 0%
Description: (§1) Next, 48 h post-seeding, cells were rinsed twice with D-PBS and then incubated with 500 μL of Tamra-CPP-iCAL36 solution at the indicated conditions.
(§2) Standard transfection and kinetic measurements.
(§3) Transfection in the presence of serum.

Calu-3 cells = test: Cellular uptake of Tamra-labelled peptides by flow cytometry, Calu-3; format: cell-based, human
Description: as §1, §2, §3

TatRI-iCAL36 = target: T1, TatRI-iCAL36 (N-terminal D-amino acid retro-inverso Tat (qpprrrqrrkkrg)); test: fluorescence polarization
T1 chain: ANSRWPTSII

Molecule: C[C@@H]1[C@H](O)[C@@H](C)/C=C/C=C/CC/C=C/C=C/C=C/C=C/C(O[C@H]2O[C@H](C)[C@@H](O)[C@H](N)[C@@H]2O)CC2O[C@](O)(CC(O)C(O)CCC(O)CC(O)CC(O)CC(=O)O[C@H]1C)CC(O)C2C(=O)O (some centres unmarked) [NYS, nystatin]
- loss of viability (slight cytotoxicity) by endocytosis inhibitors (Caco-2 cells [1]): 5–20%

Molecule: CC[C@H](C)[C@H](NC(=O)[C@@H](NC(=O)[C@H](CO)NC(=O)[C@@H](NC(=O)[C@@H]1CCCN1C(=O)[C@H](Cc1c[nH]c2ccccc12)NC(=O)[C@H](CCCNC(=N)N)NC(=O)[C@H](CO)NC(=O)[C@H](CC(N)=O)NC(=O)[C@H](C)NC(=O)CNC(=O)[C@@H](CCCNC(=N)N)NC(=O)[C@@H](CCCCN)NC(=O)[C@@H](CCCCN)NC(=O)[C@@H](CCCNC(=N)N)NC(=O)[C@@H](CCCNC(=N)N)NC(=O)[C@@H](CCC(N)=O)NC(=O)[C@@H](CCCNC(=N)N)NC(=O)[C@@H](CCCNC(=N)N)NC(=O)[C@@H](CCCNC(=N)N)NC(=O)[C@H]1CCCN1C(=O)[C@H]1CCCN1C(=O)[C@H](N)CCC(N)=O)[C@@H](C)O)[C@@H](C)CC)C(=O)O [TatRI-iCAL36] (H-[dQ][dP][dP][dR][dR][dR][dQ][dR][dR][dK][dK][dR]GANSRWPTSII-OH)
- intracellular fluorescence without vs with chloroquine, peptide at 1 µM (Caco-2 cells [2]; Tamra-TatRI-iCAL36 1 µM, CQ 100 µM, n = 4, one-way ANOVA): no statistical difference
- decrease in transfection efficiency with 10% serum (Caco-2 cells [2]; 37 °C, n = 4): no significant difference
- decrease in transfection efficiency with 20% serum (Caco-2 cells [2]; 37 °C, n = 4): 18%
- increase in signal intensity (internalization) with longer incubation time (4.5 h) (Caco-2 cells [2]; Tamra-peptides in OptiMEM, 4.5 h vs […], 37 °C, n = 3 (Figure S2A)): ~ 3 fold

Molecule: GALFLGWLGAAGSTMGAWSQPKKKRKV-ANSRWPTSII [MPG-iCAL36, MPG cell-penetrating peptide conjugated to iCAL36]
- cellular internalization (Tamra fluorescence), comparison between peptides (Caco-2 cells [2]; Tamra-labelled peptides 1 µM or 5 µM in OptiMEM, […], 37 °C, trypsinization, mean ± SD, n = 4): superior to Tat-iCAL36 and its analogs
- decrease in transfection efficiency with 10% serum (Caco-2 cells [2]; 37 °C, n = 4): ~ 30%
- decrease in transfection efficiency with 20% serum (Caco-2 cells [2]; 37 °C, n = 4): ~ 50%
- cellular internalization (Tamra fluorescence), comparison between peptides (Calu-3 cells; Calu-3, Tamra-labelled peptides 1 µM or 5 µM in OptiMEM, […], 37 °C, trypsinization, flow cytometry, mean ± SD, n = 4): superior to Tat-iCAL36 and its analogs
- decrease in transfection efficiency with 10% serum (Calu-3 cells; Calu-3, Tamra-peptides 5 µM, 3 h, OptiMEM + 10% (v/v) FBS vs 0%, 37 °C, flow cytometry, n = 4): ~ 20%
- decrease in transfection efficiency with 20% serum (Calu-3 cells; Calu-3, Tamra-peptides 5 µM, 3 h, OptiMEM + 20% (v/v) FBS vs 0%, 37 °C, flow cytometry, n = 4): ~ 30%

Molecule: GRKKRRQRRRPPQ-ANSRWPTSII (GRKKRRQRRRPPQANSRWPTSII) [Tat-iCAL36, Tat cell-penetrating peptide conjugated to the N-terminus of iCAL36]
- increase in signal intensity (internalization) with longer incubation time (4.5 h) (Calu-3 cells): ~ 5.7 fold

B1: NHERF2 PDZ1 (N2P1) PDZ1 (protein)
chain: RPRLCRLVRGEQGYGFHLHGEKGRRGQFIRRVEPGSPAEAAALRAGDRLVEVNGVNVEGETHHQVVQRIKAVEGQTRLLVVDQETD
- Ki (TatRI-iCAL36): > 5 mM

B2: NHERF2 PDZ2 (N2P2) PDZ2 (protein)
chain: LRPRLCHLRKGPQGYGFNLHSDKSRPGQYIRSVDPGSPAARSGLRAQDRLIEVNGQNVEGLRHAEVVASIKAREDEARLLVVDPETD
- Ki (TatRI-iCAL36): > 5 mM
